The record followed here is paper PMC2680940 (Biochemistry, 2009).

In experiment [1] the target is T1, 4-chlorobenzoate:CoA ligase (CBL) (Alcaligenes sp. AL3007, UniProt Q8GN86, D402P).
T1 sequence (Q8GN86 1-504 D402P): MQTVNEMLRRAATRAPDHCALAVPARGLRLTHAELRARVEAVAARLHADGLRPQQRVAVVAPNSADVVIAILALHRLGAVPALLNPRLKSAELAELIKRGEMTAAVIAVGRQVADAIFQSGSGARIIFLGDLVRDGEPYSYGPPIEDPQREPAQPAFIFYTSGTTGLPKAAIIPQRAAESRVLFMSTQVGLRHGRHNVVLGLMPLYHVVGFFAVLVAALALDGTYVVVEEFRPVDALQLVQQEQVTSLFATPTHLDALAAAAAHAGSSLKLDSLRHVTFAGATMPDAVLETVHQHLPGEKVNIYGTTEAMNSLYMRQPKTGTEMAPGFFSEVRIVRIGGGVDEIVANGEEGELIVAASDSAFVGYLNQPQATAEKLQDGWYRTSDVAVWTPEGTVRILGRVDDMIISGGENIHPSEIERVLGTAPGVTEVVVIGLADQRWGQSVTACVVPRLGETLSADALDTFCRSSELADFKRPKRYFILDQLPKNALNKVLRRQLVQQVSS
Nature of the experiment: continuous spectrophotometric assay at […] nm, initial velocity. Type of experiment: biochemical. The settings on record: 20 μM 4-CB, 10 mM CoA, 15 mM MgCl2, 50 mM K+HEPES pH 7.5, 25 °C.

Experiment [2] concerns the target T2, 4-chlorobenzoate:CoA ligase (CBL) (Alcaligenes sp. AL3007, UniProt Q8GN86, D402A).
T2 sequence (Q8GN86 1-504 D402A): T1 sequence (Q8GN86 1-504 D402P)
The experiment is described as above. Type of experiment: biochemical. Conditions: 20 μM 4-CB, 10 mM CoA, 15 mM MgCl2, 50 mM K+HEPES pH 7.5, 25 °C.

A word on the Km: it is the substrate concentration at which the rate is half of its maximum. With `Nc1ncnc2c1ncn2[C@@H]1O[C@H](COP(=O)(O)OP(=O)(O)OP(=O)(O)O)[C@@H](O)[C@H]1O` [ATP, adenosine-5′-triphosphate], the Michaelis constant (Km) in experiment [1] came to 13.1 ± 0.7 µM; in experiment [2], 28.1 ± 0.9 µM.
